Data set [1] has as its target human D2 dopamine receptor (Homo sapiens, UniProt P14416). Put plainly: R-SAT functional receptor assay, D2 receptor co-expressed with Gαo. Conditions: for activity at 1 µM: read-out: D2 basal (basal response, no drug = 100%); for Emax: read-out: % basal response (D2 intrinsic activity).
Data set [2] deals with human D3 dopamine receptor (Homo sapiens, UniProt P35462). As to the kind of experiment: R-SAT functional receptor assay, D3 receptor co-expressed with Gαo. The conditions noted are these: for activity at 1 µM: read-out: D3 basal (basal response, no drug = 100%).
Chain of human D3 dopamine receptor (P35462 whole entry): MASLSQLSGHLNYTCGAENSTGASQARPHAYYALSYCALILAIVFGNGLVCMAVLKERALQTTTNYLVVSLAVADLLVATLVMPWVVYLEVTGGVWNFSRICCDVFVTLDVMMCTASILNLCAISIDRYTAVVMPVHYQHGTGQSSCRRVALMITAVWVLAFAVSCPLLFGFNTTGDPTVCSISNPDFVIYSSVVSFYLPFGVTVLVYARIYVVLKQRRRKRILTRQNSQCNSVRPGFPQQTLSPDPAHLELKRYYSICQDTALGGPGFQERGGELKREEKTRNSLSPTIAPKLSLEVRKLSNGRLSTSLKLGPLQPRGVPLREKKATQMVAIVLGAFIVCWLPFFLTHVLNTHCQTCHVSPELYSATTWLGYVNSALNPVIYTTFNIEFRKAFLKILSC
The target of the next data set is T1, human D2 receptors (Homo sapiens, UniProt P14416).
T1 construct: expressed in transfected cells; host or cells: HEK-293T
T1 sequence (P14416 whole entry): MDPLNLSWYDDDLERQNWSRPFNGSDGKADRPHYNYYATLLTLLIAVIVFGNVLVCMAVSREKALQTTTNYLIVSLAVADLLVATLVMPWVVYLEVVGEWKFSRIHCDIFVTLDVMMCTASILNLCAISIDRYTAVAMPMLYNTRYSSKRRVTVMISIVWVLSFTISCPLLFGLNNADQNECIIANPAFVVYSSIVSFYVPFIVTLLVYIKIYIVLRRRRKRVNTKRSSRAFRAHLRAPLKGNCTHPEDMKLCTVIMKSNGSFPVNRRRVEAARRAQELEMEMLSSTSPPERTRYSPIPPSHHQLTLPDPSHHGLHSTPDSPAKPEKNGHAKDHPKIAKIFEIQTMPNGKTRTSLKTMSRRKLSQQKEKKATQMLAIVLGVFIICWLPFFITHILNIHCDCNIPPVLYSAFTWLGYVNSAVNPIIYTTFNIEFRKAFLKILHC
As to the kind of experiment: competitive radioligand D2 binding assay, (Methoxy-3H)-raclopride, membranes of transfected HEK-293T cells. Conditions: mean of one or two experiments; butaclamol as control.

The conditions of data set [3]: steady state kinetics in humans given clozapine; cited from earlier work.
The mark [4] stands for this setting: compounds at 1 μM, mean +/− standard error, R-SAT.

The structures appear in SMILES notation. Read-outs that look alike come from different tables or passages of the source.

Chain of human D2 dopamine receptor (P14416 whole entry): as above

For the compound `CN1CCN(CCCN2c3ccccc3Sc3ccc(C(F)(F)F)cc32)CC1` [trifluoperazine], the activity at 1 µM in data set [1] was found to be 58%.

In the case of `CN1CCN(CC/C=C2/c3ccccc3Sc3ccc(S(=O)(=O)N(C)C)cc32)CC1` [thiothixene], the activity at 1 µM in data set [1] came out at 73%; in data set [2] it was 68%. Taken in the same sequence, the figures for `CCc1c(C)[nH]c2c1C(=O)C(CN1CCOCC1)CC2` (stereo not shown) [molindone] were 70% and 65%. Turning to `Cc1nc2n(c(=O)c1CCN1CCC(c3noc4cc(F)ccc34)CC1)CCCC2` [risperidone], the “D2 basal (basal response, no drug = 100%)” value in data set [1] is 63 +/− 2%. On to `O=C(CCCN1CCC(O)(c2cccc(C(F)(F)F)c2)CC1)c1ccc(F)cc1` [trifluperidol], for which the results for the activity at 1 µM in data set [1] and in data set [2] were 58% and 54%, respectively. Regarding `Brc1ccc2c(c1)N=C(N1CCNCC1)c1ccccc1O2`, in data set [1], the Emax was 155%. This compound also gave a Ki on human D2 receptors of 126 nM. Take `OCCN1CCN(CCCN2c3ccccc3Sc3ccc(C(F)(F)F)cc32)CC1` [fluphenazine]: the activity at 1 µM in data set [1] was found to be 61%; in data set [2] it was 55%. For `O=c1[nH]c2ccccc2n1C1CCN(CCCC(c2ccc(F)cc2)c2ccc(F)cc2)CC1` [pimozide], the activity at 1 µM amounted to 43% in data set [1] and 54% in data set [2].

In the case of `Cc1ccc(C2(O)CCN(CCCC(=O)c3ccc(F)cc3)CC2)cc1` [moperone], the activity at 1 µM amounted to 64% in data set [1] and 52% in data set [2].

As for `CN1CCN(C2Cc3ccccc3Sc3ccc(Cl)cc32)CC1.O=C(O)/C=C\C(=O)O` (stereo not shown) [octoclothepin], the “D3 basal (basal response, no drug = 100%)” value in data set [2] is recorded as 60 +/− 8%. In data set [1], `Clc1ccc2c(c1)N=C(N1CCNCC1)c1ccccc1N2` [N-desmethylclozapine, 8-chloro-11-(1-piperazinyl)-5H-dibenzo[b,e][1,4]diazepine] showed an EC50 of 31.6 nM. Further, in data set [1] (R-SAT), the “intrinsic activity at D2 receptor (in words)” value is given as “partial agonist” and the “relative efficacy to pergolide at D2” value stood at 34%. Further, the “D2 basal (basal response, no drug = 100%)” value in data set [1] (setting [4]) is given as 229 +/− 21%. Moreover, the “share of NDMC in total serum clozapine concentrations” value in data set [3] is 40-75%. In data set [2], the midpoint of the response, the EC50, lay at 100 nM and the activity at 1 µM was 188%. In data set [2] (R-SAT), the “intrinsic activity at D3 receptor (in words)” value was “partial agonist” and the “relative efficacy to pergolide at D3” value was determined as 40%. For `Fc1ccc2c(c1)N=C(N1CCNCC1)c1ccccc1O2`, the Emax in data set [1] turned out to be 207%. The same compound showed a Ki at human D2 receptors of 501 nM. Turning to `CCN1CCCC1CNC(=O)c1cc(S(N)(=O)=O)ccc1OC` (stereo not shown) [sulpiride], the activity at 1 µM in data set [1] is 59%. Also, in data set [2] (setting [4]), the “D3 basal (basal response, no drug = 100%)” value was 55 +/− 9%. In the case of `Cc1cccc2c1Oc1ccc(Br)cc1N=C2N1CCNCC1`, in data set [1], the Emax was found to be 112%. At human D2 receptors, this compound showed a Ki of 794 nM. For the compound `CCN(CC)CCNC(=O)c1cc(S(C)(=O)=O)ccc1OC` [tiapride], the activity at 1 µM turned out to be 65% in data set [1] and 57% in data set [2]. `Clc1ccc2c(c1)N=C(N1CCCNCC1)c1ccccc1N2`: the Emax in data set [1] turned out to be 172%. In addition, on human D2 receptors, the affinity corresponds to a Ki of 2000 nM.

Regarding `Cc1cccc2c1Oc1ccc(F)cc1N=C2N1CCNCC1`, the Emax in data set [1] is 126%. For the same compound, the Ki at human D2 receptors is 316 nM. For `CN(C)CCCN1c2ccccc2Sc2ccccc21` [promazine], the figures for the activity at 1 µM in data set [1] and in data set [2] were 76% and 83%, respectively. `CC(C)(C)[C@]1(O)CCN2C[C@H]3c4ccccc4CCc4cccc(c43)[C@@H]2C1` [butaclamol]: the “D2 basal (basal response, no drug = 100%)” value in data set [1] (setting [4]) was 60 +/− 2%. `O=C1NCCN1CCN1CCC(c2cn(-c3ccc(F)cc3)c3ccc(Cl)cc23)CC1` [sertindole]: the activity at 1 µM in data set [1] came to 61%. As for `O=C(CCCN1CCC2(CC1)C(=O)NCN2c1ccccc1)c1ccc(F)cc1` [spiperone], the “D2 basal (basal response, no drug = 100%)” value in data set [1] is on record as 51 +/− 1%. As for `N#Cc1ccc2c(c1)N=C(N1CCNCC1)c1ccccc1N2`, the Emax in data set [1] came out at 201%. At human D2 receptors, the Ki is 5010 nM. As for `Cc1cccc2c1Oc1ccc(Cl)cc1N=C2N1CCNCC1`, the Emax in data set [1] worked out at 106%. The compound also showed a Ki at human D2 receptors of 316 nM. For `Cc1cccc2c1Oc1ccc(C(F)(F)F)cc1N=C2N1CCNCC1` the same measures were 118% and 2510 nM. Turning to `CN1CCN(C2=Nc3ccccc3Cc3ccccc32)CC1` [perlapine], the activity at 1 µM in data set [1] was found to be 58%; in data set [2], 74%. On to `Cc1nc2c(C)cccn2c(=O)c1CCN1CCC(c2noc3cc(F)ccc23)CC1` [ocaperiodone], for which the “D2 basal (basal response, no drug = 100%)” value in data set [1] (setting [4]) is on record as 62 +/− 8%. The “D3 basal (basal response, no drug = 100%)” value in data set [2] (setting [4]) is 51 +/− 10%.

Regarding `Fc1ccc2c(c1)N=C(N1CCNCC1)c1ccccc1N2`, in data set [1], the Emax was found to be 170%. This compound gave a Ki on human D2 receptors of 2510 nM. For the compound `O=C1Cc2cc(CCN3CCN(c4nsc5ccccc45)CC3)c(Cl)cc2N1` [ziprasidone], the “D2 basal (basal response, no drug = 100%)” value in data set [1] (setting [4]) was 66 +/− 8%. Turning to `O=C(CCCN1CCC(O)(c2ccc(Br)cc2)CC1)c1ccc(F)cc1` [bromperidol], the activity at 1 µM in data set [1] stood at 46%; in data set [2], 43%. Turning to `Brc1ccc2c(c1)N=C(N1CCNCC1)c1ccccc1N2`, the Emax in data set [1] came to 147%. The compound further showed a Ki at human D2 receptors of 158 nM. On to `CC1CCN(CCCC(=O)c2ccc(F)cc2)CC1` [melperone], for which the activity at 1 µM was 76% in data set [1] and 75% in data set [2]. Turning to `O=C1NCN(c2ccccc2)C12CCN(CCCC(c1ccc(F)cc1)c1ccc(F)cc1)CC2` [fluspirilene], the activity at 1 µM in data set [1] amounted to 52%; in data set [2], 45%. As for `CSc1ccc2c(c1)N(CCC1CCCCN1C)c1ccccc1S2` (stereo not shown) [thioridazine], the activity at 1 µM in data set [1] and in data set [2] was 81% in each case. With `Clc1ccc2c(c1)N=C(N1CCNCC1)c1ccccc1O2`, the Emax in data set [1] turned out to be 150%. Besides, the inhibition constant Ki on human D2 receptors was 251 nM. As to `Clc1ccc2c(c1)N=C(N1CC3CC1CN3)c1ccccc1N2` (stereo not shown), in data set [1], the Emax was determined as 116%. Further, the Ki at human D2 receptors was 2510 nM. For `Cc1cccc2c1Nc1ccc(Cl)cc1N=C2N1CCNCC1`, in data set [1], the Emax was found to be 102%. In addition, the affinity at human D2 receptors corresponds to a Ki of 6310 nM. For the compound `CN1CCN(CCCN2c3ccccc3Sc3ccc(Cl)cc32)CC1` [prochlorperazine], the activity at 1 µM in data set [1] amounted to 57%; in data set [2] it was 53%. As to `CN1c2ccc(Cl)cc2N=C(N2CCNCC2)c2ccccc21`, in data set [1], the Emax stood at 141%. Further, the Ki on human D2 receptors was 794 nM. `Cc1cc2c(s1)Nc1ccccc1N=C2N1CCN(C)CC1` [olanzapine]: the “D2 basal (basal response, no drug = 100%)” value in data set [1] is 83 +/− 6%. Moreover, the “D3 basal (basal response, no drug = 100%)” value in data set [2] (setting [4]) is on record as 83 +/− 6%. `OCCN1CCN([C@@H]2C[C@@H](c3ccc(F)cc3)c3ccc(C(F)(F)F)cc32)CC1` (racemic) [tefludazine]: the activity at 1 µM was found to be 67% in data set [1] and 47% in data set [2].

As for `Clc1ccc2c(c1)N=C(N1CCNCC1)c1ccccc1C2`, the Emax in data set [1] is 260%. The compound further showed a Ki on human D2 receptors of 12.6 nM. Turning to `CCN(CC)CCCN1c2ccccc2Sc2ccc(Cl)cc21` [chlorproethazine], the “D2 basal (basal response, no drug = 100%)” value in data set [1] (setting [4]) is reported as 60 +/− 7%. Also, the “D3 basal (basal response, no drug = 100%)” value in data set [2] (setting [4]) is given as 63 +/− 10%. `Clc1ccc2c(c1)N=C(NC[C@@H]1CCCN1)c1ccccc1N2`: the Emax in data set [1] was 105%. The affinity at human D2 receptors corresponds to a Ki of 1580 nM. In the case of `OCCN1CCN(CC/C=C2/c3ccccc3Sc3ccc(C(F)(F)F)cc32)CC1` [cis-flupenthixol], the “D2 basal (basal response, no drug = 100%)” value in data set [1] is given as 59 +/− 4%.

On to `Brc1ccc2c(c1)N=C(N1CCNCC1)CCN2`, for which the Emax in data set [1] is 142%. In the case of `OCCN1CCN(CC/C=C2\c3ccccc3Sc3ccc(C(F)(F)F)cc32)CC1` [trans-(e)-flupenthixol], the “D2 basal (basal response, no drug = 100%)” value in data set [1] is 68 +/− 4%.

In the case of `CCN1CCC[C@H]1CNC(=O)c1c(O)c(Cl)cc(Cl)c1OC` (racemic) [S(−)-raclopride], in data set [1] (setting [4]), the “D2 basal (basal response, no drug = 100%)” value is on record as 60− %. In addition, in data set [2] (setting [4]), the “D3 basal (basal response, no drug = 100%)” value is listed as 56− %.

The record behind these values is patent US20060252744A1 (priority 2005, published 2006).
